Common to all, as to assay type: in vivo
Conditions in all cases: scale 0 to 100

Test [1] has as its system corn (Zea mays). The test is described as follows: Test E preemergence. The gist of the method:
(§1)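 Preemergence: seeds in silt loam treated with compound in non-phytotoxic solvent with surfactant. Postemergence: plants at 1- to 4-leaf stage (2–18 cm) in peat-based medium sprayed likewise. Greenhouse 14–21 days, then visual rating vs controls, 0 (no effect) to 100 (complete control).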

Test [2] concerns sandbur (southern sandbur, Cenchrus echinatus). The test is described as follows: Test E preemergence. The gist of the method: as §1
The test system of test [3] is soybean (Glycine max). The test is described as follows: Test E preemergence. In a few lines:
as §1

Test [4] relates to field violet (Viola arvensis). The test is described as follows: Test D postemergence. From the text: (§2) Seeds of plant species selected from bluegrass (annual bluegrass, Poa annua), blackgrass (Alopecurus myosuroides), canarygrass (Phalaris minor), chickweed (common chickweed, Stellaria media), cutleaf geranium (Geranium dissectum), galium (catchweed bedstraw, Galium aparine), downy bromegrass (Bromus tectorum), field poppy (Papaver rhoeas), field violet (Viola arvensis), green foxtail (Setaria viridis), deadnettle (henbit deadnettle, Lamium amplexicaule), Italian ryegrass (Lolium multiflorum), kochia (Kochia scoparia), lambsquarters (Chenopodium album), oilseed rape (Brassica napus), pigweed (Amaranthus retroflexus), chamomile (scentless chamomile, Matricaria inodora), Russian thistle (Salsola kali), speedwell (bird's-eye speedwell, Veronica persica), spring barley (Hordeum vulgare), spring wheat (Triticum aestivum), wild buckwheat (Polygonum convolvulus), wild mustard (Sinapis arvensis), wild oat (Avenafatua), wild radish (Raphanus raphanistrum), windgrass (Apera spica-venti), winter barley (Hordeum vulgare), and winter wheat (Triticum aestivum) were planted into a silt loam soil and treated preemergence with test chemicals formulated in a non-phytotoxic solvent mixture which included a surfactant.
(§3) At the same time, these species were planted in pots containing Redi-Earth® planting medium (Scotts Company, 14111 Scottslawn Road, Marysville, Ohio 43041) comprising spaghnum peat moss, vermiculite, wetting agent and starter nutrients and treated with postemergence applications of the test chemicals formulated in the same manner. Plants ranged in height from 2 to 18 cm (1- to 4-leaf stage). Treated plants and controls were maintained in a controlled growth environment for 14 to 21 days after which time all species were compared to controls and visually evaluated. Plant response ratings, summarized in Table D, are based on a scale of 0 to 100 where 0 is no effect and 100 is complete control. A dash (-) response means no test result.

Test [5] concerns galium (catchweed bedstraw, Galium aparine). The test is described as follows: Test D postemergence.
Excerpt: as §2, §3

Test [6] has as its system winter wheat (Triticum aestivum). Kind of test: Test D postemergence.
Excerpt: as §2, §3

Turning to `Fc1ccc(F)c(Oc2ncc(Cl)cn2)c1Oc1ncc(Cl)cn1` [Compound 34, 2,2′-[(3,6-difluoro-1,2-phenylene)bis(oxy)]bis[5-chloropyrimidine]], the “Plant response rating, Corn” value in test [1] (16 g ai/ha), in test [1] (31 g ai/ha), in test [1] (62 g ai/ha) and in test [1] (125 g ai/ha) was 0 each time. The “Plant response rating, Sandbur” value in test [2] (16 g ai/ha) was 0; in test [2] (31 g ai/ha), 0; in test [2] (62 g ai/ha) it was 10; in test [2] (125 g ai/ha), 70. For the same molecule, the “Plant response rating, Soybean” value amounted to 0 in test [3] (16 g ai/ha), 10 in test [3] (31 g ai/ha), 25 in test [3] (62 g ai/ha) and 60 in test [3] (125 g ai/ha).

For `N#Cc1cccc(Oc2ncc(Cl)cn2)c1Oc1ncc(C(F)(F)F)cn1` [Compound 38, 3-[(5-chloro-2-pyrimidinyl)oxy]-2-[[5-(trifluoromethyl)-2-pyrimidinyl]oxy]-benzonitrile], the “Plant response rating, Corn” value in test [1] (16 g ai/ha) stood at 0; in test [1] (31 g ai/ha), 0; in test [1] (62 g ai/ha), 35; in test [1] (125 g ai/ha), 50. For the same molecule, the “Plant response rating, Sandbur” value in test [2] (16 g ai/ha) is 0; in test [2] (31 g ai/ha), 0; in test [2] (62 g ai/ha) it was 35; in test [2] (125 g ai/ha), 80. Moreover, the “Plant response rating, Soybean” value in test [3] (16 g ai/ha) was found to be 15; in test [3] (31 g ai/ha), 15; in test [3] (62 g ai/ha), 95; in test [3] (125 g ai/ha), 80.

In the case of `Fc1cnc(Oc2c(Br)cccc2Oc2ncc(Cl)cn2)nc1` [Compound 22], the “Plant response rating, Field Violet” value is listed as 25 in test [4] (16 g ai/ha), 40 in test [4] (31 g ai/ha), 70 in test [4] (62 g ai/ha) and 75 in test [4] (125 g ai/ha). In addition, the “Plant response rating, Galium” value in test [5] (16 g ai/ha) was found to be 70; in test [5] (31 g ai/ha), 60; in test [5] (62 g ai/ha), 75; in test [5] (125 g ai/ha), 85. The “Plant response rating, Wheat, Winter” value in test [6] (16 g ai/ha) is given as 0; in test [6] (31 g ai/ha), 5; in test [6] (62 g ai/ha), 5; in test [6] (125 g ai/ha) it was 10.

`Fc1cnc(Oc2c(F)cccc2Oc2ncc(Cl)cn2)nc1` [Compound 23]: the “Plant response rating, Field Violet” value in test [4] (16 g ai/ha) was 15; in test [4] (31 g ai/ha) it was 60; in test [4] (62 g ai/ha), 60; in test [4] (125 g ai/ha) it was 70. Moreover, the “Plant response rating, Galium” value in test [5] (16 g ai/ha) is 65; in test [5] (31 g ai/ha) it was 70; in test [5] (62 g ai/ha), 85; in test [5] (125 g ai/ha), 85. In addition, the “Plant response rating, Wheat, Winter” value in test [6] (16 g ai/ha), in test [6] (31 g ai/ha), in test [6] (62 g ai/ha) and in test [6] (125 g ai/ha) was 0 each time.

For `Fc1cccc(Oc2ncc(C(F)(F)F)cn2)c1Oc1ncc(Cl)cn1` [Compound 42, 5-chloro-2-[2-fluoro-6-[[5-(trifluoromethyl)-2-pyrimidinyl]oxy]phenoxy]pyrimidine], the “Plant response rating, Field Violet” value in test [4] (16 g ai/ha) is recorded as 65; in test [4] (31 g ai/ha), 65; in test [4] (62 g ai/ha), 90; in test [4] (125 g ai/ha), 95. Further, the “Plant response rating, Galium” value is recorded as 70 in test [5] (16 g ai/ha), 85 in test [5] (31 g ai/ha), 90 in test [5] (62 g ai/ha) and 100 in test [5] (125 g ai/ha). Further, the “Plant response rating, Wheat, Winter” value came to 0 in test [6] (16 g ai/ha), 5 in test [6] (31 g ai/ha), 10 in test [6] (62 g ai/ha) and 20 in test [6] (125 g ai/ha). Further, the “Plant response rating, Corn” value in test [1] (16 g ai/ha) was 0; in test [1] (31 g ai/ha), 0; in test [1] (62 g ai/ha), 35; in test [1] (125 g ai/ha), 65. Moreover, the “Plant response rating, Sandbur” value in test [2] (16 g ai/ha) stood at 0; in test [2] (31 g ai/ha), 5; in test [2] (62 g ai/ha) it was 35; in test [2] (125 g ai/ha), 65. The “Plant response rating, Soybean” value is recorded as 0 in test [3] (16 g ai/ha), 35 in test [3] (31 g ai/ha), 35 in test [3] (62 g ai/ha) and 100 in test [3] (125 g ai/ha).

Take `Fc1cccc(Oc2ncc(Cl)cn2)c1Oc1ncc(C(F)(F)F)cn1` [Compound 43, 5-chloro-2-[5-fluoro-6-[[5-(trifluoromethyl)-2-pyrimidinyl]oxy]phenoxy]pyrimidine]: the “Plant response rating, Corn” value in test [1] (31 g ai/ha) worked out at 0; in test [1] (125 g ai/ha), 50. The “Plant response rating, Sandbur” value in test [2] (31 g ai/ha) was 15; in test [2] (125 g ai/ha), 100. In addition, the “Plant response rating, Soybean” value in test [3] (31 g ai/ha) turned out to be 30; in test [3] (125 g ai/ha) it was 65.

For `FC(F)(F)c1cnc(Oc2c(Br)cccc2Oc2ncc(Cl)cn2)nc1` [Compound 24], the “Plant response rating, Field Violet” value turned out to be 65 in test [4] (16 g ai/ha), 75 in test [4] (31 g ai/ha), 85 in test [4] (62 g ai/ha) and 98 in test [4] (125 g ai/ha). Moreover, the “Plant response rating, Galium” value in test [5] (16 g ai/ha) amounted to 40; in test [5] (31 g ai/ha) it was 70; in test [5] (62 g ai/ha) it was 85; in test [5] (125 g ai/ha), 90. The “Plant response rating, Wheat, Winter” value in test [6] (16 g ai/ha) is given as 10; in test [6] (31 g ai/ha) it was 10; in test [6] (62 g ai/ha), 15; in test [6] (125 g ai/ha), 15.
